BindingDB's records for doi:10.1021/jm800180e (Schering-Plough Research Institute, 2008)

Key:
[1] = Antagonist activity at PAR1 in human platelets assessed as inhibition of haTRAP-induced platelet aggregation
[2] = Antagonist activity at PAR1 in human platelets assessed as inhibition of thrombin-induced platelet aggregation

Compound `CCOC(=O)N[C@@H]1CC[C@@H]2[C@@H](C1)C[C@H]1C(=O)O[C@H](C)[C@H]1[C@H]2C=Cc1ccc(-c2cccc(F)c2)cn1` [Ethyl [(3aR,4aR,8aR,9aS)-9(S)-[(E)-2-[5-(3-fluorophenyl)-2-pyridinyl]ethenyl]dodecahydro-1(R)-methyl-3-oxonaphtho[2,3-c]furan-6(R)-yl]carbamate] has an IC50 [1] of 0.025 µM and an IC50 [2] of 0.047 µM.
